Legend:
[1] = molecular target: T1, μ(MOP) (h) receptor (Homo sapiens, UniProt P35372); experiment: Cellular functional assay, μ (MOP) (h) antagonist effect (cAMP, HTRF); assay type: cell-based
T1 construct: expressed in transfected cells; host or cells: CHO cells
Procedure: Cellular and Nuclear Receptor Functional Assays are performed on the compounds of Formula II-B and according to the procedure of Wang, J. B. et al. (1994), FEBS Lett., 338:217-222. The compounds are tested at several concentrations to determine their IC50 or EC50.
Cellular agonist effects are calculated as percent of control response to a known reference agonist for each target and cellular antagonist effect is calculated as a percent inhibition of control reference agonist response for each target.
The following assay is performed to determine the effect of the Compound of Formula on the μ(MOP) (h) receptor: […]
The results are expressed as a percent of control agonist response: […]
and as a percent inhibition of control agonist response:
The EC50 values (concentration producing a half-maximal response) and IC50 values (concentration causing a half-maximal inhibition of the control agonist response) are determined by non-linear regression analysis of the concentration-response curves generated with mean replicate values using Hill equation curve fitting:
[formula] where Y=response, A=left asymptote of the curve, D=right asymptote of the curve, C=compound concentration, and C50=EC50 or IC50, and nH=slope factor. The analysis is performed using software developed in-house and validated by comparison with data generated by the commercial software SigmaPlot® 4.0 for Windows® (© 1997 by SPSS Inc.).
For the antagonists, the apparent dissociation constants (KB) are calculated using the modified Cheng Prusoff equation:
[formula] where A=concentration of reference agonist in the assay, and EC50A=EC50 value of the reference agonist.

[2] = molecular target: 5-HT2A (Homo sapiens, UniProt P28223); experiment: Receptor binding 5-HT2A; conditions: read-out: Ki (nM) or maximum inhibition
Chain of 5-HT2A (P28223 whole entry): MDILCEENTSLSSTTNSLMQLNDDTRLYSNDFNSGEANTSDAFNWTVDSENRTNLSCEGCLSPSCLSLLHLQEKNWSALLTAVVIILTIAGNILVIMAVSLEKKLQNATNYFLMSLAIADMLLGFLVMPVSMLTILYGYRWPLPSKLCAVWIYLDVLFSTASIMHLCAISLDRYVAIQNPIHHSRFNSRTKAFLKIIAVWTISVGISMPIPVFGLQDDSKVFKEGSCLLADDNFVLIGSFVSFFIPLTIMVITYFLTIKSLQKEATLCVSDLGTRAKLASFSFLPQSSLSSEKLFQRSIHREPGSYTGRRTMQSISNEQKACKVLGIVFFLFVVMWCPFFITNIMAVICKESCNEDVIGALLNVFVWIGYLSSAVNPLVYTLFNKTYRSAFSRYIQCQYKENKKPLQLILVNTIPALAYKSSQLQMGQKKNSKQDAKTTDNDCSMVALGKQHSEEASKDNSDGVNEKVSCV
Procedure: (§1) Receptor binding is determined for the Compounds of Formulas II-A and II-B using the tosylate salt of the compound of Formula A as a control. The following literature procedures are used, each of which reference is incorporated herein by reference in their entireties:
(§2) In general, the results are expressed as a percent of control specific binding:
(§3) [formula] and as a percent inhibition of control specific binding: […]
(§4) The IC50 values (concentration causing a half-maximal inhibition of control specific binding) and Hill coefficients (nH) are determined by non-linear regression analysis of the competition curves generated with mean replicate values using Hill equation curve fitting:
(§5) [formula] where Y=specific binding, A=left asymptote of the curve, D=right asymptote of the curve, C=compound concentration, C50=IC50, and nH=slope factor. This analysis was performed using in-house software and validated by comparison with data generated by the commercial software SigmaPlot® 4.0 for Windows® (© 1997 by SPSS Inc.). The inhibition constants (Ki) were calculated using the Cheng Prusoff equation:
(§6) [formula] where L=concentration of radioligand in the assay, and KD=affinity of the radioligand for the receptor. A Scatchard plot is used to determine the KD.

[3] = molecular target: D1 (Homo sapiens, UniProt P21728); experiment: Receptor binding D1; conditions: read-out: Ki (nM) or maximum inhibition
Chain of D1 (P21728 whole entry): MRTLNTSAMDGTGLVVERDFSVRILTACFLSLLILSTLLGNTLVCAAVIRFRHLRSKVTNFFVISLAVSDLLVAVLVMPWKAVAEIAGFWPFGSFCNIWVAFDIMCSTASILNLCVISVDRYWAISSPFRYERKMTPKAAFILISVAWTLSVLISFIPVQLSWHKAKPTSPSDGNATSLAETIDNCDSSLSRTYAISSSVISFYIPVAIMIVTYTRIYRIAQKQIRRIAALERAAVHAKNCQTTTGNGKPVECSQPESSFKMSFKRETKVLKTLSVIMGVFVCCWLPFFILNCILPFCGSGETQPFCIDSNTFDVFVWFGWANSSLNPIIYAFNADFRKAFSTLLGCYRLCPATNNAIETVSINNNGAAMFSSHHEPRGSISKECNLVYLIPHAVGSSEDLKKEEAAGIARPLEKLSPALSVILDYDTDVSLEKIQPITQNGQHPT
Procedure: as §1, §2, §3, §4, §5, §6

[4] = molecular target: SERT (Homo sapiens, UniProt P31645); experiment: Receptor binding SERT; conditions: read-out: Ki (nM) or maximum inhibition
Chain of SERT (P31645 whole entry, species assumed): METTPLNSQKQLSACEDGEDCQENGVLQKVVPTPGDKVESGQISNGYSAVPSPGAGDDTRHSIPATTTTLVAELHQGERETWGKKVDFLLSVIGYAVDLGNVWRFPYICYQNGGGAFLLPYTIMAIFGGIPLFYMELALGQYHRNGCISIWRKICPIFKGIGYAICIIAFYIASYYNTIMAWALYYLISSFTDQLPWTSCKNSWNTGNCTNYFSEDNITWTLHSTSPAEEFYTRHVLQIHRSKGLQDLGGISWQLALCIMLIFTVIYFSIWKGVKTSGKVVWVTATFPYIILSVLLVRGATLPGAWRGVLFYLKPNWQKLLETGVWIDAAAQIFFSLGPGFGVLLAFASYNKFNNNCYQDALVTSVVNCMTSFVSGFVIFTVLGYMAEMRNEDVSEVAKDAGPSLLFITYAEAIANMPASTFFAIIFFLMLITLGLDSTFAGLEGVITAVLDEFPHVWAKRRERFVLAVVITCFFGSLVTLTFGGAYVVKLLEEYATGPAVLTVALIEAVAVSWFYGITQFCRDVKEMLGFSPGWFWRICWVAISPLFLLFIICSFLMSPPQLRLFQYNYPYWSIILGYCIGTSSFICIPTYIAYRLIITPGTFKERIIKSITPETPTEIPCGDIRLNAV
Procedure: as §1
SERT: Park, Y. M. et al. (1999), Anal. Biochem., 269:94-104.
as §2, §3, §4, §5, §6

[5] = molecular target: Mu opiate receptor (Homo sapiens, UniProt P35372); experiment: Receptor binding Mu opiate receptor; conditions: read-out: Ki (nM) or maximum inhibition
Chain of Mu opiate receptor (P35372 whole entry): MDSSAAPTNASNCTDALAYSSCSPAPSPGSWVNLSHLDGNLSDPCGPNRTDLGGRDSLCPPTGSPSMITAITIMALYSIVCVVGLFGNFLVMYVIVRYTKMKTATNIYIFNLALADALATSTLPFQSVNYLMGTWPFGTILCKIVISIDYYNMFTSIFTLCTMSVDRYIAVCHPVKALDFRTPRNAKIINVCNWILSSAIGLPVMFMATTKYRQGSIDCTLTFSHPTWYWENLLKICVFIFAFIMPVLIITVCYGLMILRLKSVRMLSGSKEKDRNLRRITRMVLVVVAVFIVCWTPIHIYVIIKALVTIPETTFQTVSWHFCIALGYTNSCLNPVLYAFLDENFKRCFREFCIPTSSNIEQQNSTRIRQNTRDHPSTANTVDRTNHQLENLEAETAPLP
Procedure: as §1
Mu opiate receptor: Wang, J. B. et al. (1994), FEBS Lett., 338:217-222.
as §2, §3, §4, §5, §6

T1 sequence (P35372 whole entry): as above

IC50 ([1]; human recombinant CHO cells, DAMGO (20 nM) stimulus, cAMP) [nM] | Kb ([1]; modified Cheng Prusoff equation, DAMGO (20 nM), read-out: μ(MOP) (h) (antagonist effect) KB (apparent dissociation constant)) [nM] | SMILES | IC50 ([1]; unit inferred, highest concentration tested) [nM] | Ki [2] [nM] | Ki [3] [nM] | inhibition at 1 µM [4] [%] | Ki [5] [nM]
– | – | O=C1CN2c3c(cccc3[C@@H]3CN(CCCC(=O)c4ccncc4)CC[C@@H]32)N1 [Formula II-C] | > 10000 | 37 | 470 | 40 | 400
1300 | 140 | CN1C(=O)CN2c3c(cccc31)[C@@H]1CN(CCCC(=O)c3ccncc3)CC[C@@H]12 [Formula II-B] | – | – | – | – | –

— US10961245B2, “Substituted heterocycle fused gamma-carbolines for treatment of central nervous system disorders” (INTRA-CELLULAR THERAPIES, INC., priority 2016, dated 2021)
